Test results from patent US9421254B2, “Immunostimulatory combinations of TLR ligands and methods of use” (The United States of America, as represented by the …, priority 2007, dated 2016).
“Also recorded” adds a separate entry of the source.

What was measured:
BMDCs [1] = assay: Intracellular IL-12 and CD86 on BMDCs treated in vitro with TLR ligands (flow cytometry); conditions: for inducing IL-12 production from DCs / upregulation of CD86 expression: TLR4 ligand alone; for inducing IL-12 production from DCs: relative to MALP-2+PolyI:C and PolyI:C+CpG; for upregulation of CD86 expression: relative to PolyI:C, FIG. 9B; for synergy with PolyI:C in IL-12 production: TLR2 ligand combined with PolyI:C
[2] = system: popliteal LN MHC class II+CD11c+ DCs; assay: DC activation in popliteal LNs after footpad immunization with TLR ligands; assay type: in vivo, mice; conditions: FIG. 5D
Procedure: Mice were immunized in the footpads with MALP-2, PolyI:C and CpG singly or pairwise. Paired popliteal LN cells were isolated 36 hours later for assay by flow cytometry. […] Panel (D) is a graph showing CD86 expression on DCs.
If this hypothesis were true, it may be expected that use of synergistic combinations of TLRs as adjuvant would result in similar activation of DCs in vivo. To test this hypothesis, DCs were isolated from popliteal LNs following footpad immunization with TLR ligands and examined ex vivo. […] Therefore, the interplay of TLRs in activating DCs in vivo is nonrandom and mediated through potentiating MyD88-dependent cytokines that could account for the activation of specific T cells.

BMDCs [3] = assay: Secreted cytokines/chemokines from BMDCs treated in vitro with TLR ligands (multiplex); assay type: cell-based, mouse; conditions: FIG. 3D
purified T cells = assay: Purified T cells cultured with recombinant cytokines/chemokines (CD69); assay type: cell-based, mouse; conditions: added to MyD88-dependent cytokines; FIG. 12B
Procedure: Panel (A) is a graph showing the results when BMDC pretreated with MALP-2+PolyI:C were cultured with purified T cells in the presence of neutralizing antibodies against cytokines as indicated. CD69+ T cells were measured 24 hours later. Panel (B) is a graph showing the results when purified T cells were culture in the presence of IL-12 (25 ng/ml), TNFa (10 ng/ml), MIP-1a (50 ng/ml) and IP-10 (25 ng/ml) singly or in combinations as indicated. CD69+CD8+ T cells were measured after 24 hours of treatment.
As there are several MyD88-dependent inflammatory cytokines that are produced downstream of the JNK/c-Jun pathway, blocking one of these cytokines may not be expected to abolish the synergy effect.

| Molecule | inducing IL-12 production from DCs (BMDCs [1]) | upregulation of CD86 expression (BMDCs [1]) | synergy with PolyI:C in IL-12 production (BMDCs [1]; FIG. 9A) | also measured |
| --- | --- | --- | --- | --- |
| CCCCCCCCCCCC(=O)CC(=O)N[C@H](COCC[C@@H](CCCCCCC)OC(=O)CCCCCCCCCCC)COP(=O)(O)OCCNC(=O)NCCOP(=O)(O)OC[C@@H](COCC[C@@H](CCCCCCC)OC(=O)CCCCCCCCCCC)NC(=O)CC(=O)CCCCCCCCCCC [E6020] | equivalent | efficacy equivalent to PolyI:C | – | – |
| polyinosine-polycytidylic acid [PolyI:C] | – | – | – | IL-12 production on addition to the TLR4 stimulation (BMDCs [1]; FIG. 9A): did not further enhance; CD86 expression on DCs (BMDCs [1]; ligand alone, FIG. 3C): upregulate CD86 expression; expression of CD86 by LN DCs ([2]; ligand alone): upregulated; IP-10 production by DCs (BMDCs [3]; ligand alone): produce IP-10 |
| Lipoteichoic acids [LTA] | – | – | could also act synergistically and did | – |
| monophosphoryl lipid A [MPL] | equivalent | efficacy equivalent to PolyI:C | – | – |
| IP-10: Recombinant IP-10 protein purchased from Peprotech | – | – | – | enhancement of the CD69 response already induced by the MyD88-dependent cytokines (purified T cells): did not significantly enhance |
| lipopolysaccharide [LPS] | equivalent | efficacy equivalent to PolyI:C | – | – |
| macrophage activating lipoprotein (MALP-2) | – | – | did | further increase in CD86 expression compared to PolyI:C alone (BMDCs [1]; ligand added to PolyI:C, FIG. 3C): did not result in a further increase; increase in CD86 by LN DCs when ligand included with PolyI:C [2]: no significant increases; further increase in IP-10 production compared to PolyI:C alone (BMDCs [3]; ligand added to PolyI:C): did not result in a further increase |
| PAM3CSK4 | – | – | could not; also recorded: did not synergize | – |
